{"source": "ChEMBL document CHEMBL1133994", "about": "“Design and synthesis of sialyl Lewis x mimics as E-selectin inhibitors” (Bioorg Med Chem Lett, 2001)"}
{"biological_target": "T1, E-selectin (Homo sapiens, UniProt P16581)", "T1 sequence (P16581 whole entry)": "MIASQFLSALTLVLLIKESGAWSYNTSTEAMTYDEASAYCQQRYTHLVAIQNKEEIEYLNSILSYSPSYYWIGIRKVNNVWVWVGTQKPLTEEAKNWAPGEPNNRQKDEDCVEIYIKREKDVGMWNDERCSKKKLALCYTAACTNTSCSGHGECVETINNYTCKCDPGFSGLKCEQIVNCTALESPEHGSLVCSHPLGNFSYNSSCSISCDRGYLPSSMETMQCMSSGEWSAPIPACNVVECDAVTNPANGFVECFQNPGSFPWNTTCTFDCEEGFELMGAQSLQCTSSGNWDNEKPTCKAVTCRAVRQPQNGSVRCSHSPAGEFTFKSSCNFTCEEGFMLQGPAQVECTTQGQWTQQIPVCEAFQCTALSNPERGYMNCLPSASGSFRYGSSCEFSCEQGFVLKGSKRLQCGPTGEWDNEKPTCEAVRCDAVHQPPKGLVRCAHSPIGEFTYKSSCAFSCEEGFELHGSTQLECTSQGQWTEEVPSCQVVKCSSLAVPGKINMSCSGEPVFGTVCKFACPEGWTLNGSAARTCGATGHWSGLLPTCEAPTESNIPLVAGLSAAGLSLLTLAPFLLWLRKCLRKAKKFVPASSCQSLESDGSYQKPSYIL", "experiment": "In vitro inhibitory activity against Selectin E binding to human recombinant AGP (alpha-1 acid glycoprotein); call rule not given here", "units": {"IC50": "mM"}}
{"smiles": "O=C(O)CCCc1ccc(NC(=O)CC2OC(CO)C(O)C(O)C2O)cc1", "note": "(configuration not stated)", "IC50": "> 10"}
{"smiles": "NC(=O)[C@H](Cc1ccccc1)NCC1OC(CC(=O)N[C@@H](CCC(=O)O)C(=O)O)C(O)C(O)C1O", "note": "(some centres not stated)", "IC50": 6.7}
{"smiles": "O=C(O)CC[C@H](NC(=O)CC1OC(CN2CCC(O)(Cc3ccccc3)CC2)C(O)C(O)C1O)C(=O)O", "note": "(some centres not stated)", "IC50": 1.6}
{"smiles": "O=C(O)CCc1ccc(NC(=O)CC2OC(CO)C(O)C(O)C2O)cc1", "note": "(configuration not stated)", "IC50": 10}
{"smiles": "O=C(O)CC[C@H](NC(=O)CC1OC(CNc2cc(C(=O)O)cc(C(=O)O)c2)C(O)C(O)C1O)C(=O)O", "note": "(some centres not stated)", "IC50": 6}
{"smiles": "O=C(O)CC[C@@H](NC(=O)CC1OC(CO)C(O)C(O)C1O)C(=O)O", "note": "(some centres not stated)", "IC50": 7}
{"smiles": "CC1CCCC(N(C)CC2OC(CC(=O)N[C@@H](CCC(=O)O)C(=O)O)C(O)C(O)C2O)C1", "note": "(some centres not stated)", "IC50": 8}
{"smiles": "NCCCC[C@@H](NC(=O)CC1OC(CO)C(O)C(O)C1O)C(=O)O", "note": "(some centres not stated)", "IC50": 7}
{"smiles": "NC(=O)CC[C@@H](NC(=O)CC1OC(CO)C(O)C(O)C1O)C(=O)O", "note": "(some centres not stated)", "IC50": "> 10"}
{"smiles": "O=C(O)C[C@@H](NC(=O)CC1OC(CO)C(O)C(O)C1O)C(=O)O", "note": "(some centres not stated)", "IC50": 6}
{"smiles": "O=C(O)CC[C@H](NC(=O)CC1OC(CO)C(O)C(O)C1O)C(=O)O", "note": "(some centres not stated)", "IC50": 3}
{"biological_target": "T1, E-selectin", "experiment": "In vitro inhibitory activity against binding of Selectin E to human recombinant AGP (alpha-1 acid glycoprotein) at a concentration of 10 mM; NA- Not active"}
{"smiles": "C[C@@H](Cc1ccccc1)N(C)CC1OC(CC(=O)N[C@@H](CCC(=O)O)C(=O)O)C(O)C(O)C1O", "note": "(some centres not stated)", "IC50": "Not Active"}
{"smiles": "NC(=O)[C@H]1CCCN1CC1OC(CC(=O)N[C@@H](CCC(=O)O)C(=O)O)C(O)C(O)C1O", "note": "(some centres not stated)", "IC50": "Not Active"}
{"smiles": "Cc1cccc(N2CCN(CC3OC(CC(=O)N[C@@H](CCC(=O)O)C(=O)O)C(O)C(O)C3O)CC2)c1C", "note": "(some centres not stated)", "IC50": "Not Active"}
{"smiles": "NC(=O)CC1OC(CO)C(O)C(O)C1O", "note": "(configuration not stated)", "IC50": "Not Active"}
{"smiles": "O=C(O)C(NCCC1OC(CO)C(O)C(O)C1O)c1cc2ccccc2[nH]1", "note": "(configuration not stated)", "IC50": "Not Active"}
{"smiles": "O=C(O)c1cc(NCCC2OC(CO)C(O)C(O)C2O)cc(C(=O)O)c1", "note": "(configuration not stated)", "IC50": "Not Active"}
